What is called IC50 is the concentration at which inhibition is half-maximal. A high value points to lower potency.

This assay has as its target Ser–Thr PP-1 catalytic subunit (PP1c) (Oryctolagus cuniculus, UniProt P62139). In words: DiFMUP fluorescence phosphatase assay, residual activity […] at […]. The format is biochemical.

Ser–Thr PP-1 catalytic subunit (PP1c), sequence (P62139 2-330): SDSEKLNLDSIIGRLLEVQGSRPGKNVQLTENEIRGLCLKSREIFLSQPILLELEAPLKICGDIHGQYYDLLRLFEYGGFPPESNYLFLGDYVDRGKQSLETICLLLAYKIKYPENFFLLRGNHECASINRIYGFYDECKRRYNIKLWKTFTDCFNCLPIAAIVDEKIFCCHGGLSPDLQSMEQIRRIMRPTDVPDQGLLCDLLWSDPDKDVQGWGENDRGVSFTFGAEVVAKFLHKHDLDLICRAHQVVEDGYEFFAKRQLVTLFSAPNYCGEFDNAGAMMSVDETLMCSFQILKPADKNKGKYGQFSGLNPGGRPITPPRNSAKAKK

Molecule `CN1C[C@@H](c2c[nH]c3cc(Br)ccc23)NC[C@@H]1c1c[nH]c2cc(Br)ccc12` [compound 3, dragmacidin A] displayed a concentration for half-maximal inhibition (IC50) of roughly 10 µM.

These data come from publication PMC6045348 (ACS Omega, 2018).
